Active and inactive are the calls of the source. No cut-off for these calls is given here.
Experiments:
dsDNA [1] = test: Binding affinity to dsDNA (unknown origin) of 5 uM assessed as reduction in fluorescence intensity at 5 uM relative to control; type: nucleic-acid assay; parameters: scale not given: the % may be the effect or the level left
dsDNA [2] = test: Binding affinity to dsDNA (unknown origin) of 10 uM assessed as reduction in fluorescence intensity at 5 uM relative to control; type: nucleic-acid assay; parameters: scale not given: the % may be the effect or the level left
THP-1 [3] = test: Induction of DNA damage in human THP-1 monocytes assessed as increase in gamma-H2AX at 1 uM incubated for 24 hrs by Western blot analysis; type: toxicity, cell-based; details: thp-1, 24 h
THP-1 [4] = test: Cytotoxicity against human THP-1 monocytes assessed as cell viability at 10 uM incubated for 24 hrs by flow cytometry; type: toxicity, cell-based; details: thp-1, 24 h
THP-1 [5] = test: Induction of DNA damage in human THP-1 macrophages assessed as increase in gamma-H2AX at 10 uM incubated for 24 hrs by Western blot analysis; type: toxicity, cell-based; details: thp-1, 24 h
Protein phosphatase 1A [6] = target: T1, Protein phosphatase 1A (Homo sapiens, UniProt P35813); test: Inhibition of recombinant human PPM1A using pNPP as substrate preincubated for 15 mins followed by substrate addition measured after 20 mins by absorbance based assay
T1 sequence (P35813 whole entry): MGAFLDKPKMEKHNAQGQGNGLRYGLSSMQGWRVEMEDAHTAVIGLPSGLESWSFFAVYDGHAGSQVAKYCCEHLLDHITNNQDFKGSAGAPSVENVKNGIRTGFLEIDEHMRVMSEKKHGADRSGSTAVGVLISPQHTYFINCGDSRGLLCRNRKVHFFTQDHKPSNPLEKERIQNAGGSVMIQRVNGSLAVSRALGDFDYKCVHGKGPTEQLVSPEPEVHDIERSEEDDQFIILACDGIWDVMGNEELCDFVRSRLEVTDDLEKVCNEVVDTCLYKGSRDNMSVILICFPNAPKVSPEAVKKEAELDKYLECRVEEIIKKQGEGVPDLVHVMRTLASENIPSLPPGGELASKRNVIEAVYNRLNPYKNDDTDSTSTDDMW

[7] = Cytotoxicity against human THP-1 cells by resazurin dye based assay; type: toxicity, cell-based
[8] = Cytotoxicity against human Caco-2 cells by resazurin dye based assay; type: toxicity, cell-based
Protein phosphatase 1A [9] = target: T1, Protein phosphatase 1A; test: Inhibition of PPM1A (unknown origin)
dsDNA [10] = test: Binding affinity to dsDNA (unknown origin) assessed as reduction in fluorescence intensity at 5 uM; type: nucleic-acid assay
THP-1 [11] = test: Induction of DNA damage in human THP-1 monocytes assessed as increase in gamma-H2AX at 0.1 to 10 uM incubated for 24 hrs by Western blot analysis; type: toxicity, cell-based; details: thp-1, 24 h, dose 0.1-10 µM
THP-1 [12] = test: Induction of DNA damage in human THP-1 macrophages assessed as increase in gamma-H2AX at 0.1 to 10 uM incubated for 24 hrs by Western blot analysis; type: toxicity, cell-based; details: thp-1, 24 h, dose 0.1-10 µM
THP-1 [13] = test: Cytotoxicity against human THP-1 monocytes assessed as cell viability at 0.1 to 10 uM incubated for 24 hrs by flow cytometry; type: toxicity, cell-based; details: thp-1, 24 h, dose 0.1-10 µM
THP-1 [14] = test: Cytotoxicity against human THP-1 macrophages assessed as cell viability at 0.1 to 10 uM incubated for 24 hrs by flow cytometry; type: toxicity, cell-based; details: thp-1, 24 h, dose 0.1-10 µM

SMILES | IC50 (Protein phosphatase 1A [6]) | other results
C[n+]1cc2c3c(ccc2c2ccc4cc5c(cc4c21)OCO5)OCO3 [SANGUINARIUM] |  | Activity (dsDNA [1]): 84%; Activity (dsDNA [2]): 93%; Activity (THP-1 [3]): Toxic; Activity (THP-1 [4]): Toxic; Activity (THP-1 [5]): Toxic
COc1ccc2c(c1)c[n+](CCO)c1ccc(Br)cc21 | 4.51 µM | CC50 [7]: 68 µM; CC50 [8]: 185 µM
COc1ccc2c(c1)c[n+](CCO)c1ccc(F)cc21.[Br-] | 1.19 µM | IC50 (Protein phosphatase 1A [9]): 1.19 µM; Ki (Protein phosphatase 1A [9]): 0.84 µM; CC50 [7]: 94.8 µM; CC50 [8]: > 200 µM; Activity (dsDNA [10]): inactive; Activity (THP-1 [11]): Non-Toxic; Activity (THP-1 [12]): Non-Toxic; Activity (THP-1 [13]): Non-Toxic; Activity (THP-1 [14]): Non-Toxic
COc1ccc2cc[n+](CCO)cc2c1 | > 20 µM | 
COc1ccc2c(c1)c[n+](CCO)c1ccc(Cl)cc21 | > 20 µM | 
OCC[n+]1cc2cc3c(cc2c2cc(F)ccc21)OCO3 | > 20 µM | 
COc1cc2c[n+](CCO)c3ccc(F)cc3c2cc1-c1cc(C)cc(C)c1 | > 20 µM | 
COc1ccc2c(c1)c[n+](CCCCO)c1ccc(F)cc21 | > 20 µM | 
CCOc1ccc2c(c1)c[n+](CCO)c1ccc(OC)cc21 | > 20 µM | 
CCOc1ccc2c(c1)c1ccc(OC)cc1c[n+]2CCO | > 20 µM | 
COc1cc2c[n+](CCO)c3ccc(F)cc3c2cc1I | > 20 µM | 
COc1cc2c[n+](CCO)c3ccc(F)cc3c2cc1OC | > 20 µM | 
COc1ccc2c(c1)c[n+](NCCO)c1ccc(F)cc21 | > 10 µM | 
OCC[n+]1cccc2cc(F)ccc21 | > 20 µM | 
COc1cc2c[n+](CCO)c3ccc(F)cc3c2cc1C#Cc1ccccc1 | > 10 µM | 
COc1cc2c[n+](CCO)c3ccc(F)cc3c2cc1-c1ccc(F)cc1 | > 20 µM | 
COc1ccc2c(c1)c[n+](CC(C)O)c1ccc(F)cc21 (configuration not stated) | > 20 µM | 
COc1ccc2c(c1)c[n+](CCO)c1ccc(OC)cc21 | 2.6 µM | CC50 [7]: 47.2 µM; CC50 [8]: > 200 µM
COc1ccc2c(c1)c[n+](Cc1cccc(O)c1)c1ccc(F)cc21 | > 20 µM | 
Cc1ccc2c(c1)c[n+](CCO)c1ccc(F)cc21 | > 20 µM | 

— ChEMBL document CHEMBL5523733, “Small Molecule Targeting PPM1A Activates Autophagy for Mycobacterium tuberculosis Host-Directed Therapy” (J Med Chem, 2024)
